# ChEMBL document CHEMBL5154944, “Discovery of Aryloxyphenyl-Heptapeptide Hybrids as Potent and Selective Matrix Metalloproteinase-2 Inhibitors for the Treatment of Idiopathic Pulmonary Fibrosis” (J Med Chem, 2022)
# Calls of active or inactive are those of the source. The rule behind the calls is not given here. Non-standard residues stand in square brackets, D forms with d. Residues, ends and D or L forms follow the SMILES beside them. *: point of attachment. Benzoyl(4-OPh(4-CONH2)) = NC(=O)c1ccc(Oc2ccc(C(=O)*)cc2)cc1; NMeE = CN[C@@H](CCC(=O)O)C(=O)O; β3hP = O=C(O)C[C@@H]1CCCN1; Dab = NCC[C@H](N)C(=O)O; Ava = NCCCCC(=O)O
# Assays:
# [1] = physchem; conditions: phosphate buffer, pH 7.4
# [2] = Protein binding in human serum assessed as free fraction at 10 ug/ml incubated for 6 hrs by equilibrium dialysis based LC-MS/MS assay; type: ADME, cell-free; conditions: at 10 µg/mL
# [3] = Volume of distribution at steady state in fasted Sprague-Dawley rat at 1 mg/kg, iv by LC-MS/MS analysis; type: ADME, organism-based; conditions: in vivo, read-out: Vdss
# [4] = Half life in fasted Sprague-Dawley rat at 1 mg/kg, iv by LC-MS/MS analysis; type: ADME, organism-based; conditions: in vivo
# [5] = target: Stromelysin-1 (Homo sapiens, UniProt P08254); assay: Inhibition of recombinant human MMP3 using MOCAc-Lys-Pro-Leu-Gly-Leu-A2pr(Dnp)-[…] as substrate preincubated for 15 mins followed by substrate addition by fluroscence based assay
# [6] = test system: HepG2; assay: Cytotoxicity against human HepG2 cells assessed as reduction in cell viability at 10 uM after 48 hrs by CCK8 assay; type: functional
# [7] = Free drug concentration in C57BL/6N mouse plasma at 0.03 mg/kg/day, sc via osmotic pumps dosed for 14 days; type: ADME, organism-based; conditions: in vivo, 336 h, time 14 day
# [8] = target: T1, Matrilysin (Homo sapiens, UniProt P09237)
# T1 sequence (P09237 whole entry): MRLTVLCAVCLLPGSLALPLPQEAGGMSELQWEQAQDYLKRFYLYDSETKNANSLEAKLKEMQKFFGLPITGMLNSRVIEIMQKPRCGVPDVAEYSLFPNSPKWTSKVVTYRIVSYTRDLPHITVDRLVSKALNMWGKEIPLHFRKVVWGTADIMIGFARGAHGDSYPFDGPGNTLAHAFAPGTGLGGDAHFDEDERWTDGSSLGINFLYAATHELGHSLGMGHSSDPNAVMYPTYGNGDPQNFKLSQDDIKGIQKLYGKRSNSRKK
# [9] = Protein binding in mouse serum assessed as free fraction at 10 ug/ml incubated for 6 hrs by equilibrium dialysis based LC-MS/MS assay; type: ADME, cell-free; conditions: at 10 µg/mL
# [10] = Solubility of the compound in phosphate buffer at pH 7.4 by HPLC analysis; type: physicochemical
# [11] = target: Matrix metalloproteinase-14 (Homo sapiens, UniProt P50281); assay: Inhibition of recombinant human MMP14 using MOCAc-Lys-Pro-Leu-Gly-Leu-A2pr(Dnp)-Ala-Arg-NH2 as substrate preincubated for 15 mins followed by substrate addition by fluroscence based assay
# [12] = Metabolic stability in human hepatocytes assessed as parent compound remaining measured after 1 hr by LC-MS/MS analysis; type: ADME, cell-based, Hepatocyte; conditions: read-out: Stability
# [13] = physchem; conditions: phosphate buffer, pH 9
# [14] = target: CYP2D6 (Homo sapiens, UniProt P10635); assay: Inhibition of CYP2D6 in human liver microsomes at 10 uM using bufuralol as substrate preincubated for 5 mins followed by addition of NADPH measured after 10 mins by LC/MS/MS analysis relative to control; type: ADME, Microsome; conditions: probe bufuralol, time 15 min
# [15] = Metabolic stability in rat hepatocytes assessed as parent compound remaining incubated for 1 hr by LC-MS/MS; type: ADME, cell-based, Hepatocyte; conditions: read-out: Stability
# [16] = test system: Mus musculus; assay: Antifibrotic activity in C57BL/6N mouse model of bleomycin-induced idiopathic pulmonary fibrosis assessed as reduction of total collagen content at 0.03 mg/kg/day, sc via osmotic pumps dosed for 14 days; type: functional, organism-based; conditions: time 14.0 day
# [17] = target: Matrix metalloproteinase-9 (Homo sapiens, UniProt P14780)
# [18] = Metabolic stability in human serum assessed as parent compound remaining incubated for 6 hrs by LC-MS/MS analysis; type: ADME, cell-free; conditions: read-out: Stability
# [19] = target: T2, Interstitial collagenase (Homo sapiens, UniProt P03956); assay: Inhibition of recombinant human MMP1 using MOCAc-Lys-Pro-Leu-Gly-Leu-A2pr(Dnp)-Ala-Arg-NH2 as substrate preincubated for 15 mins followed by substrate addition by fluroscence based assay
# T2 sequence (P03956 whole entry): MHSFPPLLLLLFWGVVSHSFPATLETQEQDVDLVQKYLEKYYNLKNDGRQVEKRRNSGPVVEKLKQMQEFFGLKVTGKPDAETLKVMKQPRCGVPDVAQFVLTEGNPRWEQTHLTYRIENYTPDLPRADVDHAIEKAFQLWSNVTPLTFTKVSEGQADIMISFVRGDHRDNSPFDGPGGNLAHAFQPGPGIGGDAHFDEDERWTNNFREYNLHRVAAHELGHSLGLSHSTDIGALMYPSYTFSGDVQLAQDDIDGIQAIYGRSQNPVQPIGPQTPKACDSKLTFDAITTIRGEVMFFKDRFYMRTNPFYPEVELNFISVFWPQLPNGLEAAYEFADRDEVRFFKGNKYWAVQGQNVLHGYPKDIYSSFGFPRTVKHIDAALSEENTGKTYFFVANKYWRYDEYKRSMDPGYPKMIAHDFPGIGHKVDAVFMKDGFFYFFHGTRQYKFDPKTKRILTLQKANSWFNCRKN
# [20] = target: CYP3A4 (Homo sapiens, UniProt P08684); assay: Inhibition of CYP3A4 in human liver microsomes at 10 uM using midazolam as substrate preincubated for 5 mins followed by addition of NADPH measured after 5 mins by LC/MS/MS analysis relative to control; type: ADME, Microsome; conditions: probe midazolam
# [21] = target: Neutrophil collagenase (Homo sapiens, UniProt P22894)
# [22] = target: Voltage-gated inwardly rectifying potassium channel KCNH2 (Homo sapiens, UniProt Q12809); assay: Inhibition of human ERG expressed in CHO cells by Qpatch-clamp method; type: toxicity, cell-based
# [23] = target: CYP1A2 (Homo sapiens, UniProt P05177); assay: Inhibition of CYP1A2 in human liver microsomes at 10 uM using phenacetin as substrate for 5 mins followed by NADPH addition and measured after 10 mins by LC/MS/MS analysis relative to control; type: ADME, Microsome; conditions: probe phenacetin, time 15 min
# [24] = Chemical stability of the compound in acetate buffer at pH 4.0 assessed as residual rate incubated for 2 weeks by HPLC analysis; type: physicochemical; conditions: read-out: Stability
# [25] = target: CYP2C9 (Homo sapiens, UniProt P11712); assay: Inhibition of CYP2C9 in human liver microsomes at 10 uM using diclofenac as substrate preincubated for 5 mins followed by addition of NADPH measured after 5 mins by LC/MS/MS analysis relative to control; type: ADME, Microsome; conditions: probe diclofenac, time 10 min
# [26] = test system: Mus musculus; assay: Antifibrotic activity in C57BL/6N mouse model of bleomycin-induced idiopathic pulmonary fibrosis assessed as reduction of total collagen content at 0.03 to 1 mg/kg/day, sc via osmotic pumps dosed for 14 days; type: functional, organism-based; conditions: dose 0.03-1 mg/kg/day, time 14.0 day
# [27] = target: CYP2C19 (Homo sapiens, UniProt P33261); assay: Inhibition of CYP2C19 in human liver microsomes at 10 uM using mephenytoin as substrate preincubated for 5 mins followed by addition of NADPH measured after 10 mins by LC/MS/MS analysis relative to control; type: ADME, Microsome; conditions: probe mephenytoin, time 15 min
# [28] = Clearance in fasted Sprague-Dawley rat at 1 mg/kg, iv by LC-MS/MS analysis; type: ADME, organism-based; conditions: in vivo
# [29] = test system: HepG2; assay: Cytotoxicity against human HepG2 cells assessed as reduction in cell viability at 50 uM after 48 hrs by CCK8 assay; type: functional
# [30] = physchem; conditions: buffer, pH 7.4
# [31] = Solubility of the compound in phosphate buffer at pH 9 by HPLC analysis; type: physicochemical
# [32] = Solubility of the compound in acetate buffer at pH 4.0 by HPLC analysis; type: physicochemical
# [33] = Volume of distribution at steady state in fasted Sprague-Dawley rat at 0.4 mg/kg, iv by LC-MS/MS analysis; type: ADME, organism-based; conditions: in vivo, read-out: Vdss
# [34] = Clearance in fasted Sprague-Dawley rat at 0.4 mg/kg, iv by LC-MS/MS analysis; type: ADME, organism-based; conditions: in vivo
# [35] = target: Collagenase 3 (Homo sapiens, UniProt P45452)
# [36] = target: 72 kDa type IV collagenase (Homo sapiens, UniProt P08253)
# [37] = Half life in fasted Sprague-Dawley rat at 0.4 mg/kg, iv by LC-MS/MS analysis; type: ADME, organism-based; conditions: in vivo
# 72 kDa type IV collagenase, sequence (P08253 whole entry): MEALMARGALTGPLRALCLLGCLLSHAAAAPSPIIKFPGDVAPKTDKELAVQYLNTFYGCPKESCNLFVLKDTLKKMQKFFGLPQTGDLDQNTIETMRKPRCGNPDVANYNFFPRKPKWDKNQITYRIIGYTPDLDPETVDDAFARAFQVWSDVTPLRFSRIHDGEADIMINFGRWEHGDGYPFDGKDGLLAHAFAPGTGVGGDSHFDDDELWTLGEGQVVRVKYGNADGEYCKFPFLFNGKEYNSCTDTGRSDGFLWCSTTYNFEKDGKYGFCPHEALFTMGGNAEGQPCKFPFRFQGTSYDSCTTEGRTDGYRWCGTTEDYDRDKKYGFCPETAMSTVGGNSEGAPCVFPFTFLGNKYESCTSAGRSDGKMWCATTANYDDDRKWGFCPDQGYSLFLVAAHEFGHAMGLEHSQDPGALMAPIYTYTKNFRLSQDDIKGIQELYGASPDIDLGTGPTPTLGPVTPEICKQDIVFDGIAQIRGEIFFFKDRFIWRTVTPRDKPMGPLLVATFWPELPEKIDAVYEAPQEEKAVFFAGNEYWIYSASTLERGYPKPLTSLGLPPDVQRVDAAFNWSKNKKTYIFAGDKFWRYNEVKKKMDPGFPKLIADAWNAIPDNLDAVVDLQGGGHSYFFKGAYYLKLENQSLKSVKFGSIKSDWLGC
# Neutrophil collagenase, sequence (P22894 whole entry): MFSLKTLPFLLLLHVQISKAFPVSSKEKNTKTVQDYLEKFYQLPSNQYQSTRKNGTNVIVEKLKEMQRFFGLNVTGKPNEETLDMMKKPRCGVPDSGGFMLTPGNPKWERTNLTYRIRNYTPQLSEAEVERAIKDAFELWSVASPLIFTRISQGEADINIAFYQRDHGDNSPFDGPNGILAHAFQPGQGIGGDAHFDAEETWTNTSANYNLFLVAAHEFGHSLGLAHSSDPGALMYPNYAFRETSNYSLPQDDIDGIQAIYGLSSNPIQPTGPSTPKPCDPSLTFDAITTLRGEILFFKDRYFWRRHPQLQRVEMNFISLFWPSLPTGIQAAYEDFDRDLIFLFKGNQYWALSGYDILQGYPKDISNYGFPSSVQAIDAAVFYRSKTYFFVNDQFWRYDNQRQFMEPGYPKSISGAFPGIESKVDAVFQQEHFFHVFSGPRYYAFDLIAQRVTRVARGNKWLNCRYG
# CYP3A4, sequence (P08684 whole entry): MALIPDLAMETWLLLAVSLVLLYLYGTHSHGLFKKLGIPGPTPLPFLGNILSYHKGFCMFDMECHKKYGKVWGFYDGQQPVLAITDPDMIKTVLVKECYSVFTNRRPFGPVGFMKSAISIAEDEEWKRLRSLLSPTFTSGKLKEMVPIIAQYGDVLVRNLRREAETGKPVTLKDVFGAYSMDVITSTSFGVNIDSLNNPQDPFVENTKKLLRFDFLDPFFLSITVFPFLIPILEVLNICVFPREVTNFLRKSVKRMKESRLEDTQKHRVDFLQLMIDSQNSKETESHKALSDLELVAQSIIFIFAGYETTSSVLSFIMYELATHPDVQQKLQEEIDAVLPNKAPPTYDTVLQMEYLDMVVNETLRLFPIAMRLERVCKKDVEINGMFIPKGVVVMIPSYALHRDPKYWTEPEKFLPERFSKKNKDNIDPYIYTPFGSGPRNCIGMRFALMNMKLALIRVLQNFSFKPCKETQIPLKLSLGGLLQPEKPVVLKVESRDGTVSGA
# Voltage-gated inwardly rectifying potassium channel KCNH2, sequence (Q12809 whole entry): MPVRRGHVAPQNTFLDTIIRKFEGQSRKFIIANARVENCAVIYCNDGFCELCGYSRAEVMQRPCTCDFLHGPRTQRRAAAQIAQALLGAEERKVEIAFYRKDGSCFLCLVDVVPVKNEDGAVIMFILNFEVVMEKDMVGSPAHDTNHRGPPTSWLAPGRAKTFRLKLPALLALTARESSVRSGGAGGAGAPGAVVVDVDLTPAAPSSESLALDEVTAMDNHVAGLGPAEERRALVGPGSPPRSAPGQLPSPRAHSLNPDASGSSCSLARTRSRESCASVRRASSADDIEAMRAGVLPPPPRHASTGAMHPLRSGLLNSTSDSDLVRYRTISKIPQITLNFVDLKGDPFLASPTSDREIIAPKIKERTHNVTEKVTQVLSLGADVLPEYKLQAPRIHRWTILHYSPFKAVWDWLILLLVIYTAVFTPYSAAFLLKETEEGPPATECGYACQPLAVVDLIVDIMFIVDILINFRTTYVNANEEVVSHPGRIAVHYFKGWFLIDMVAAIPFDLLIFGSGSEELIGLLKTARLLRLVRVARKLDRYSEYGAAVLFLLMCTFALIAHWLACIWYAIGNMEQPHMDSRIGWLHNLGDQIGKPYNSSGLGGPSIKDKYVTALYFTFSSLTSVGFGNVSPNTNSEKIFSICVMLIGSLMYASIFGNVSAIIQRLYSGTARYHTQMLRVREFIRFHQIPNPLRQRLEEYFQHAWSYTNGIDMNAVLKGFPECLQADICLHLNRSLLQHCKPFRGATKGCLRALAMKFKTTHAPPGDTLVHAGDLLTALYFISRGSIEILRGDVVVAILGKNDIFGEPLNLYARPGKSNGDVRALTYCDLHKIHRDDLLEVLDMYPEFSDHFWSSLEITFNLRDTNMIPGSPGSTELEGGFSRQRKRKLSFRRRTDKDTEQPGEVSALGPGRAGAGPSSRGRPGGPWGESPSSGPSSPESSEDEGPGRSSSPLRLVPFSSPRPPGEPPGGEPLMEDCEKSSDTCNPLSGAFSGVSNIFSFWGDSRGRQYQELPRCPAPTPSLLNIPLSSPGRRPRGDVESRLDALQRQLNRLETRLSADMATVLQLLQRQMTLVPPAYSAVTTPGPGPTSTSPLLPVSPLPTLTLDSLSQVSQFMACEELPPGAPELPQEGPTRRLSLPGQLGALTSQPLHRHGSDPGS
# CYP2C19, sequence (P33261 whole entry): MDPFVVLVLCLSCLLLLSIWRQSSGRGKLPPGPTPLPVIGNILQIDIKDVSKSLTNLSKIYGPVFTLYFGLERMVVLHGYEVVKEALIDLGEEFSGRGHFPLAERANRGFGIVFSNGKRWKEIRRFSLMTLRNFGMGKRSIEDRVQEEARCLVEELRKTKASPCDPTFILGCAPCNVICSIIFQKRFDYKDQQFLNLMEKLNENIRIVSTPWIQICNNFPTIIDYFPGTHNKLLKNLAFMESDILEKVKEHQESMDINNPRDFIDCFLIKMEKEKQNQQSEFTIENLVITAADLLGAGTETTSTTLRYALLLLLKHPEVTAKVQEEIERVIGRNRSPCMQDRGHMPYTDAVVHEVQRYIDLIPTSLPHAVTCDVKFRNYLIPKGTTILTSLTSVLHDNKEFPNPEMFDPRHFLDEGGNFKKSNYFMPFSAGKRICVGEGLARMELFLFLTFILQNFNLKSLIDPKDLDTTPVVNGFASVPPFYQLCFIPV
# CYP2C9, sequence (P11712 whole entry): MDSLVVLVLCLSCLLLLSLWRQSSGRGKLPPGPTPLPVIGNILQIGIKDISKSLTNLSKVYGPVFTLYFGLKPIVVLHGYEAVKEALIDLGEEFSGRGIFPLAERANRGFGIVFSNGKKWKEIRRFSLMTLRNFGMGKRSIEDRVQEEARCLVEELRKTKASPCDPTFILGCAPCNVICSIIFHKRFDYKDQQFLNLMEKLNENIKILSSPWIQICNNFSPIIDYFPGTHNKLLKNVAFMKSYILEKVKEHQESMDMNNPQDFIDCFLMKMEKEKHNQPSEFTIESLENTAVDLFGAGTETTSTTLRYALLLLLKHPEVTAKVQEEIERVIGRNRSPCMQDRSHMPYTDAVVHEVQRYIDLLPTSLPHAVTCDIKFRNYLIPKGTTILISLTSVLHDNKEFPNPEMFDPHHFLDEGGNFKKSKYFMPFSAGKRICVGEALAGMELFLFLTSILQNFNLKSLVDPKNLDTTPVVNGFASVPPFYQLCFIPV
# CYP2D6, sequence (P10635 whole entry): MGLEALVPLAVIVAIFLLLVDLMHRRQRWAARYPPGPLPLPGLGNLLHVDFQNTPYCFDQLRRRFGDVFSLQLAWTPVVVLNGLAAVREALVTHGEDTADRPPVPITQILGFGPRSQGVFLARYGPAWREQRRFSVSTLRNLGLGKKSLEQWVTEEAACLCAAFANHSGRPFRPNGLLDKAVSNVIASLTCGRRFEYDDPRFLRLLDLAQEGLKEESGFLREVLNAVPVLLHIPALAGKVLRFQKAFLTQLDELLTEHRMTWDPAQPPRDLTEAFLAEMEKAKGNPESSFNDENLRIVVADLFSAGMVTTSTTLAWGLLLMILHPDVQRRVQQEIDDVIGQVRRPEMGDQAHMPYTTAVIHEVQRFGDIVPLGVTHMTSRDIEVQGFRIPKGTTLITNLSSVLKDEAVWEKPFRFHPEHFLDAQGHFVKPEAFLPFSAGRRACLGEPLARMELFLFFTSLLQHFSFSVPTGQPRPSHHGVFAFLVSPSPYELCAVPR
# CYP1A2, sequence (P05177 whole entry): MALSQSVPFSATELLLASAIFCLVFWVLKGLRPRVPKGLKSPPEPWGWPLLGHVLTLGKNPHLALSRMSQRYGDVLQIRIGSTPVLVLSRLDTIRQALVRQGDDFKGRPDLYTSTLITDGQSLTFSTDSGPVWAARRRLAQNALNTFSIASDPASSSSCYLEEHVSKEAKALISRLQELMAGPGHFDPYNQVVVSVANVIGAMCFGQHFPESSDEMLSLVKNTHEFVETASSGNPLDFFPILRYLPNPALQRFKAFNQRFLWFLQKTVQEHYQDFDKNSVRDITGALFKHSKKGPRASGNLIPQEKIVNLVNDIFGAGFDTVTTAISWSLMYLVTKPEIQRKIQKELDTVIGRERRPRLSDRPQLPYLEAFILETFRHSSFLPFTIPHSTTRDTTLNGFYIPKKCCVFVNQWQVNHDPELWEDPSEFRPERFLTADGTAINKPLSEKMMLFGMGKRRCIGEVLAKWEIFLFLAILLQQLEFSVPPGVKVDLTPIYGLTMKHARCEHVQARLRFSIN
smiles,measurement,setting,value
CC(C)C[C@H](NC(=O)[C@H](CCN)NC(=O)[C@H](CC(=O)O)NC(=O)[C@H](CCC(=O)O)NC(=O)CCCCNC(=O)c1ccc(Oc2ccc(C(N)=O)cc2)cc1)C(=O)N(C)[C@@H](CCC(=O)O)C(=O)N1CCC[C@H]1CC(N)=O ({Benzoyl(4-OPh(4-CONH2))-Ava}-ED[Dab]L[NMeE][β3hP]-NH2),remaining at 336 h,[1],95.1%
same,"fraction unbound at 6 h, 10 ug/ml",[2],0.552
same,Vd,[3],0.233 L/kg
same,half-life,[4],14 min
same,IC50,[5],> 10 µM
same,Activity,[6],1.1%
same,Cp(f),[7],0.48 nM
same,IC50,[8],> 10 µM
same,"fraction unbound at 6 h, 10 ug/ml",[9],0.518
same,solubility,[10],> 24.2 mg/mL
same,IC50,[11],2.22 µM
same,remaining at 1 h,[12],101%
same,remaining at 336 h,[13],95.4%
same,"inhibition at 10 min, 10 µM",[14],-2.5%
same,"remaining at 1 h, 1 µM",[15],98.2%
same,Activity,[16],Active
same,IC50,[17],> 8.51 µM
same,remaining at 6 h,[18],110%
same,IC50,[19],> 10 µM
same,"inhibition at 5 min, 10 µM",[20],-2.4%
same,IC50,[21],3.72 µM
same,IC50,[22],> 100 µM
same,"inhibition at […], 10 µM",[23],-4.2%
same,remaining at 336 h,[24],88%
same,"inhibition at 5 min, 10 µM",[25],1.6%
same,Activity,[26],Active
same,"inhibition at 10 min, 10 µM",[27],-9.1%
same,clearance,[28],11.7 mL/min/kg
same,Activity,[29],-0.9%
same,logD,[30],-0.21
same,solubility,[31],> 167 mg/mL
same,solubility,[32],> 18.2 mg/mL
CC(C)C[C@H](NC(=O)[C@H](CCN)NC(=O)[C@H](CC(=O)O)NC(=O)[C@H](CC(N)=O)NC(=O)CCCCNC(=O)c1ccc(Oc2ccc(C(N)=O)cc2)cc1)C(=O)N(C)[C@@H](CCC(=O)O)C(=O)N1CCC[C@H]1CC(N)=O ({Benzoyl(4-OPh(4-CONH2))-Ava}-ND[Dab]L[NMeE][β3hP]-NH2),remaining at 336 h,[1],89.4%
same,Vd,[33],0.267 L/kg
same,remaining at 336 h,[13],78%
same,clearance,[34],12 mL/min/kg
same,"remaining at 1 h, 1 µM",[15],101%
same,IC50,[35],0.057 µM
same,IC50,[36],0.051 nM
same,remaining at 336 h,[24],95.8%
same,half-life,[37],16 min
